Molecules are shown by their SMILES.

Assay [1] concerns the target Serine/threonine-protein kinase pim-1 (Homo sapiens, UniProt P11309). The experiment in a line: Inhibition of N-terminal GST-tagged recombinant human full length Pim-1 expressed in Escherichia coli after 1 hr by Alphascreen assay.
In assay [2] the target is Mitogen-activated protein kinase 1 (Homo sapiens, UniProt P28482). The experiment in a line: Inhibition of recombinant ERK2 (unknown origin) after 1 hr by Alphascreen assay.
Assay [3] deals with High affinity nerve growth factor receptor (Homo sapiens, UniProt P04629). The assay can be described thus: Inhibition of N-terminal His6-tagged human recombinant TrkA (440 to end residues) expressed in baculovirus infected insect Sf21 cells after 1 hr by Alphascreen assay.
Chain of High affinity nerve growth factor receptor (P04629 whole entry): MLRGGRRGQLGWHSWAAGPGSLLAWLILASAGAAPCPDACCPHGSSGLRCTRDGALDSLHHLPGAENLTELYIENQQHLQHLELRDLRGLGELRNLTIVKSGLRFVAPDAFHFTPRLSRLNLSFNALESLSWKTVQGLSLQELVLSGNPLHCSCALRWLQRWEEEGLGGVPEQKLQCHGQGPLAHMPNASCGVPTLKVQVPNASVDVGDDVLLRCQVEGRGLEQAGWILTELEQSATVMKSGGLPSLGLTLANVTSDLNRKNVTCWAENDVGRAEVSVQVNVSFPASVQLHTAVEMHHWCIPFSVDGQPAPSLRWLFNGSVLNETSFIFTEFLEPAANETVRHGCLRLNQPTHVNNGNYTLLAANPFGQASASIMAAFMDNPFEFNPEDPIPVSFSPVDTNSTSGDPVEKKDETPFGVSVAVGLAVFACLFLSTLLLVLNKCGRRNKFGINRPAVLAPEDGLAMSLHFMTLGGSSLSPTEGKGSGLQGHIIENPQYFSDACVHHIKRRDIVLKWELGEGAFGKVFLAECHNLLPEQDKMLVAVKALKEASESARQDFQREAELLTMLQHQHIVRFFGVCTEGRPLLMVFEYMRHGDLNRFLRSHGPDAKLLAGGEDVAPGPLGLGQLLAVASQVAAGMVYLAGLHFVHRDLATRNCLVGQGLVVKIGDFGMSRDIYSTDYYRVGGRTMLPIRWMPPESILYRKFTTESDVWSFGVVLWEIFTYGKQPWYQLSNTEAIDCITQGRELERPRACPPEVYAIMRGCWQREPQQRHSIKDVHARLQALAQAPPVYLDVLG
Assay [4] has as its target Vascular endothelial growth factor receptor 2 (Homo sapiens, UniProt P35968). The experiment in a line: Inhibition of N-terminal His6-tagged human recombinant KDR (790 to end residues) expressed in baculovirus infected insect Sf21 cells after 1 hr by Alphascreen assay.
For assay [5], the target named is Tyrosine-protein kinase ABL1 (Homo sapiens, UniProt P00519). The experiment in a line: Inhibition of recombinant c-Abl (unknown origin) after 1 hr by Alphascreen assay.
Chain of Tyrosine-protein kinase ABL1 (P00519 whole entry): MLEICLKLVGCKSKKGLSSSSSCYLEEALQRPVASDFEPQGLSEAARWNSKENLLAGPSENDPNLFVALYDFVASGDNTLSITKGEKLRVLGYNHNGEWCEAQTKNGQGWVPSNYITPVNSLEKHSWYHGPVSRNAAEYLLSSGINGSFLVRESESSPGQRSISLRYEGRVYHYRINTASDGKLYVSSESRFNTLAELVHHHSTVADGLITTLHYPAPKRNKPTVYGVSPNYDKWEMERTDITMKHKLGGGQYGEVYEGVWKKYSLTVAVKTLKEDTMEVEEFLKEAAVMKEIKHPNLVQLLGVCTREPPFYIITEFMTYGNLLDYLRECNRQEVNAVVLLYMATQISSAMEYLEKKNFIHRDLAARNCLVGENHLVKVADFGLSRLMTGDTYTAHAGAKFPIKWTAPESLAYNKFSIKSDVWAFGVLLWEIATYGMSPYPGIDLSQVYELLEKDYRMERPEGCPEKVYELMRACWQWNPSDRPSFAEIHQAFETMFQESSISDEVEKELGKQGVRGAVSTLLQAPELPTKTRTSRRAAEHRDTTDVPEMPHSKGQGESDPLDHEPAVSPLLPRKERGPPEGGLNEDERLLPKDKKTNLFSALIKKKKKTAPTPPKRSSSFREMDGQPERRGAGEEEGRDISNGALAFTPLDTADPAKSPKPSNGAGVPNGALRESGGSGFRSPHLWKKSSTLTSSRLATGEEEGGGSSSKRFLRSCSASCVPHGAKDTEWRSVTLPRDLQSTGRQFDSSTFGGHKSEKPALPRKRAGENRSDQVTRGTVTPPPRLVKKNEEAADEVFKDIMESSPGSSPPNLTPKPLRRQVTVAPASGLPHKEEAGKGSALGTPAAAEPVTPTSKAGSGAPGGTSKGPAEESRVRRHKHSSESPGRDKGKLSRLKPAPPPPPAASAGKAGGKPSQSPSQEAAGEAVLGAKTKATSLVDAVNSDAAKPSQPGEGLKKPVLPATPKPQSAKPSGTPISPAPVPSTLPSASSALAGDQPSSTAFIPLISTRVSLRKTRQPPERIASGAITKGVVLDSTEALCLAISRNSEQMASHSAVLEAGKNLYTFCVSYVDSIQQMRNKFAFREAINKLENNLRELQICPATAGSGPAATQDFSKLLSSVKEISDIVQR
For assay [6], the target named is Tyrosine-protein kinase Yes (Homo sapiens, UniProt P07947). The experiment in a line: Inhibition of N-terminal His6-tagged human recombinant Yes expressed in baculovirus infected insect Sf21 cells after 1 hr by Alphascreen assay.
For assay [7], the target named is Homeodomain-interacting protein kinase 1 (Homo sapiens, UniProt Q86Z02). The assay can be described thus: Inhibition of N-terminal His6-tagged recombinant human HIPK1 (158 to 555 residues) after 1 hr by Alphascreen assay.
Chain of Homeodomain-interacting protein kinase 1 (Q86Z02 whole entry, the tested form may be a part): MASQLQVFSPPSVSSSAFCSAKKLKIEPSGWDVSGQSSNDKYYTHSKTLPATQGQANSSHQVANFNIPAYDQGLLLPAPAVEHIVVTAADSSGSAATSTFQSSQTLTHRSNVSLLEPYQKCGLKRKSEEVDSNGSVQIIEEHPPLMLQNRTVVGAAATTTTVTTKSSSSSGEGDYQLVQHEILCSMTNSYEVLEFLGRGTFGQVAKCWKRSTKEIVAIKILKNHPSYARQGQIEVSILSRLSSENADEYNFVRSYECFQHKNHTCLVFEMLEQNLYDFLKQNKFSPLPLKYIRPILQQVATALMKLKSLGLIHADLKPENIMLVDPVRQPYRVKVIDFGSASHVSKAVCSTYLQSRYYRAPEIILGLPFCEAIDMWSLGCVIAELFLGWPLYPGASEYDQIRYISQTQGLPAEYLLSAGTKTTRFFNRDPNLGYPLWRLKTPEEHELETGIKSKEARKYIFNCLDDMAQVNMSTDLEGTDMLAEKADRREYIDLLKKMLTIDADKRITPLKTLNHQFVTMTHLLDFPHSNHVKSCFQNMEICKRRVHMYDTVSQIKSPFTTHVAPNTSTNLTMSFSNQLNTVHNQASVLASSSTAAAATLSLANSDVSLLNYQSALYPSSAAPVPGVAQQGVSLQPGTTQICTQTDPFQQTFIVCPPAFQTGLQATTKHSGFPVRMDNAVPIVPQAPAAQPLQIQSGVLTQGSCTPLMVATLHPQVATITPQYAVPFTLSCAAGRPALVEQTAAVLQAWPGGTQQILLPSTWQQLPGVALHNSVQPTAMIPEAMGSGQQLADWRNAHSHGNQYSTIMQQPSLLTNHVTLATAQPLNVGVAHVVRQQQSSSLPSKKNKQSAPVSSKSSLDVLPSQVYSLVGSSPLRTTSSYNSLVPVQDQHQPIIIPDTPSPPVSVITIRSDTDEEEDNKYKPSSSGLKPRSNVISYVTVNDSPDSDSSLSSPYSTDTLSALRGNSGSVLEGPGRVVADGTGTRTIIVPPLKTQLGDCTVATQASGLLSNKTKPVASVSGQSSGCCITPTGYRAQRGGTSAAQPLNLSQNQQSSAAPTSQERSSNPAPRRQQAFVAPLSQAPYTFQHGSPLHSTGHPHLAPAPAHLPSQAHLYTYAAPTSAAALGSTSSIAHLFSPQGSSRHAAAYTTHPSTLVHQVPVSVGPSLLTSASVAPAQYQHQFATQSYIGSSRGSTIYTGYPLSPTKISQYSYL

Chain of Vascular endothelial growth factor receptor 2 (P35968 whole entry): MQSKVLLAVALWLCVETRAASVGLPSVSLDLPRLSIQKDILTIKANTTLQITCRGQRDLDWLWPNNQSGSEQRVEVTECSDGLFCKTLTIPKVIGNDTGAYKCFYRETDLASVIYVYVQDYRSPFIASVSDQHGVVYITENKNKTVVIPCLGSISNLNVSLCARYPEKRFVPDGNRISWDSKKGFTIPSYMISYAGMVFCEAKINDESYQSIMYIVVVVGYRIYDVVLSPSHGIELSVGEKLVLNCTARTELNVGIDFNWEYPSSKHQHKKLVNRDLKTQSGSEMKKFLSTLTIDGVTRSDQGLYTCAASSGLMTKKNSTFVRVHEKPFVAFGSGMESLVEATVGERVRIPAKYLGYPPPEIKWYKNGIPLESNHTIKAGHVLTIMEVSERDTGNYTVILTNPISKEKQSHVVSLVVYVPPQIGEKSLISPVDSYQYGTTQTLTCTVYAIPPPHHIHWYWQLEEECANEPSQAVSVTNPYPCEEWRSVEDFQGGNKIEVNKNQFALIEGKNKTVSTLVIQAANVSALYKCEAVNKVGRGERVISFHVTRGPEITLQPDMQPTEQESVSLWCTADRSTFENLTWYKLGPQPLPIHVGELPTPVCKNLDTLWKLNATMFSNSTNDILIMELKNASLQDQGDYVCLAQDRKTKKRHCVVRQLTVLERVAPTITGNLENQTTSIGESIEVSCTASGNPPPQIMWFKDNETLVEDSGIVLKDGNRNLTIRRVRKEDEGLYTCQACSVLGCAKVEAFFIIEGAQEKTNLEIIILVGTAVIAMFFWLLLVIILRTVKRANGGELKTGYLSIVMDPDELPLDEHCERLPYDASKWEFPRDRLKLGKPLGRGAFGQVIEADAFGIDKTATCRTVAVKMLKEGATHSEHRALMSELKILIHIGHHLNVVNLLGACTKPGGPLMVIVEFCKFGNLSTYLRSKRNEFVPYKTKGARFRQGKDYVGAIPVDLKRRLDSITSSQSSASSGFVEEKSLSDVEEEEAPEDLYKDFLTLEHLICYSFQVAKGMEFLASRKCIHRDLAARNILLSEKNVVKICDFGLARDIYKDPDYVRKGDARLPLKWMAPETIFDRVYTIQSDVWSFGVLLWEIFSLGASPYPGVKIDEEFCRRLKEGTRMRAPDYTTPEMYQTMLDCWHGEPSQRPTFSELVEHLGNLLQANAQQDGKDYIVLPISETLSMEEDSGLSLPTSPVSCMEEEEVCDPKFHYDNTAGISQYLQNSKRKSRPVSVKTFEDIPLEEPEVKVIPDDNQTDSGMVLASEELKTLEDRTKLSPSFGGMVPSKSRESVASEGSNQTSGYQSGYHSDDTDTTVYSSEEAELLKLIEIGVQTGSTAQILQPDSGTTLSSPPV
Chain of Serine/threonine-protein kinase pim-1 (P11309 whole entry): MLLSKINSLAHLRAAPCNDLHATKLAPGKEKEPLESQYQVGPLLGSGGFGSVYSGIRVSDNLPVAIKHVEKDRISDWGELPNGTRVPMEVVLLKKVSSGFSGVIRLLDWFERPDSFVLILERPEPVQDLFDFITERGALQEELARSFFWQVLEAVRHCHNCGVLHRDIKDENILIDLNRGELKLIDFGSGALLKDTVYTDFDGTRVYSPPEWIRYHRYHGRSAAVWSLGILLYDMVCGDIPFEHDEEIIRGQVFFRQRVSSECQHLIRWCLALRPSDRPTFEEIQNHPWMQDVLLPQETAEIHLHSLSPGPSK

As to `COc1cccc(NC(=O)Nc2nccc3nc(-c4ccccc4)cnc23)c1`, the IC50 in assay [1] was over 100 µM; in assay [2], over 100 µM; in assay [3], over 100 µM; in assay [4] it was over 100 µM; in assay [5], over 100 µM; in assay [6] it was over 31.6 µM. The IC50 in assay [7] is over 100 µM.

Turning to `COc1ccc(-c2cnc3cncc(Nc4ccc(N5CCOCC5)cc4)c3n2)cc1`, the IC50 in assay [1] came to 4.4 µM; in assay [2] it was 4.26 µM; in assay [3], 2.48 µM; in assay [4], 3.31 µM; in assay [5], 2.49 µM; in assay [6], 2.41 µM. The IC50 in assay [7] is 4.02 µM.

With `c1ccc(-c2cnc3cnc(Nc4ccc(N5CCCCC5)cc4)cc3n2)cc1`, the IC50 in assay [1] was 27.4 µM; in assay [2] it was 23.2 µM; in assay [3], 9.24 µM; in assay [4], 17.1 µM; in assay [5], 8.71 µM; in assay [6], 23.1 µM. Besides, in assay [7], the IC50 worked out at 30.5 µM.

`COc1ccc(Nc2nccc3nc(-c4ccccc4)cnc23)cc1`: the IC50 in assay [1] was over 100 µM; in assay [2] it was over 100 µM; in assay [3], over 100 µM; in assay [4], over 100 µM; in assay [5] it was over 100 µM; in assay [6] it was 31.5 µM. Moreover, in assay [7], the IC50 was over 100 µM.

Consider `COc1ccc(NC(=O)Nc2cncc3nc(-c4ccccc4)cnc23)cc1`, for which the IC50 was 16.4 µM in assay [1]; 5.25 µM in assay [2]; over 100 µM in assay [3]; over 100 µM in assay [4]; 25.1 µM in assay [5]; 22.1 µM in assay [6]. In addition, the IC50 in assay [7] amounted to 20.4 µM.

On to `COc1cccc(Nc2cncc3ncc(-c4ccc(N5CCCCC5)cc4)nc23)c1`, for which the IC50 was 11.3 µM in assay [1]; 16.6 µM in assay [2]; 9.36 µM in assay [3]; 8.84 µM in assay [4]; 7.71 µM in assay [5]; 11.1 µM in assay [6]. In addition, the IC50 in assay [7] amounted to 12.7 µM.

On to `COc1cccc(Nc2cncc3nc(-c4ccc(N5CCCCC5)cc4)cnc23)c1`, for which the IC50 is over 100 µM in assay [1]; over 100 µM in assay [2]; over 100 µM in assay [3]; over 100 µM in assay [4]; 7.91 µM in assay [5]; over 31.6 µM in assay [6]. Also, the IC50 in assay [7] is over 100 µM.

Consider `C=CCNC(=O)Nc1cncc2nc(-c3ccccc3)cnc12`, for which the IC50 in assay [1] was over 100 µM; in assay [2], over 31.6 µM; in assay [3], over 100 µM; in assay [4], over 31.6 µM; in assay [5] it was over 100 µM; in assay [6], over 100 µM. In addition, in assay [7], the IC50 was over 100 µM.

Regarding `c1ccc(Nc2cncc3nc(-c4ccc(N5CCCCC5)cc4)cnc23)cc1`, the IC50 in assay [1] is over 100 µM; in assay [2], over 100 µM; in assay [3], over 100 µM; in assay [4] it was over 100 µM; in assay [5], 22.5 µM; in assay [6], over 31.6 µM. Further, the IC50 in assay [7] was over 100 µM.

As to `c1ccc(-c2cnc3c(Nc4ccc(N5CCCCC5)cc4)nccc3n2)cc1`, the IC50 was determined as 4.91 µM in assay [1]; 1.42 µM in assay [2]; 5.81 µM in assay [3]; 1.1 µM in assay [4]; 2.66 µM in assay [5]; 8.1 µM in assay [6]. Moreover, in assay [7], the IC50 was determined as 0.922 µM.

Regarding `C#Cc1cccc(Nc2nccc3nc(-c4ccccc4)cnc23)c1`, the IC50 in assay [1], in assay [2], in assay [3], in assay [4], in assay [5] and in assay [6] was over 100 µM throughout. Further, in assay [7], the IC50 is over 100 µM.

For the compound `COc1ccc(-c2cnc3cncc(Nc4ccc(N5CCCCC5)cc4)c3n2)cc1`, the IC50 in assay [1] came to 2.83 µM; in assay [2] it was 3.13 µM; in assay [3] it was 3.72 µM; in assay [4], 2.05 µM; in assay [5], 2.27 µM; in assay [6], 5.34 µM. Also, in assay [7], the IC50 turned out to be 3.21 µM.

Take `COc1ccccc1Nc1nccc2nc(-c3ccccc3)cnc12`: the IC50 was over 100 µM in assay [1]; over 100 µM in assay [2]; over 100 µM in assay [3]; over 31.6 µM in assay [4]; 16.6 µM in assay [5]; 20.4 µM in assay [6]. In addition, the IC50 in assay [7] was over 100 µM.

Take `COc1cccc(Nc2cc3nc(-c4ccccc4)cnc3cn2)c1`: the IC50 in assay [1] is over 100 µM; in assay [2], over 100 µM; in assay [3] it was over 100 µM; in assay [4], over 100 µM; in assay [5], over 100 µM; in assay [6], over 31.6 µM. For the same compound, the IC50 in assay [7] was over 100 µM.

On to `c1ccc(-c2cnc3cncc(Nc4ccc(N5CCOCC5)cc4)c3n2)cc1`, for which the IC50 is 8.3 µM in assay [1]; 8.43 µM in assay [2]; 5.32 µM in assay [3]; 6.12 µM in assay [4]; 5.27 µM in assay [5]; 5.11 µM in assay [6]. Moreover, in assay [7], the IC50 is 8.15 µM.

Turning to `c1ccc(-c2cnc3cncc(Nc4ccc(N5CCCCC5)cc4)c3n2)cc1`, the IC50 in assay [1] was found to be 2.61 µM; in assay [2], 2.02 µM; in assay [3] it was 3.23 µM; in assay [4], 1.56 µM; in assay [5], 2.16 µM; in assay [6], 5.56 µM. In assay [7], the IC50 worked out at 2.59 µM.

In the case of `COc1cccc(NC(=O)Nc2cncc3nc(-c4ccccc4)cnc23)c1`, the IC50 was over 31.6 µM in assay [1]; over 31.6 µM in assay [2]; over 100 µM in assay [3]; over 100 µM in assay [4]; over 100 µM in assay [5]; over 31.6 µM in assay [6]. For the same compound, in assay [7], the concentration for half-maximal inhibition (IC50) was over 100 µM.

As to `c1ccc(-c2cnc3c(Nc4ccc(N5CCOCC5)cc4)nccc3n2)cc1`, the IC50 in assay [1] was over 100 µM; in assay [2], over 100 µM; in assay [3], 13.7 µM; in assay [4] it was 16 µM; in assay [5] it was 11.5 µM; in assay [6] it was 12.6 µM. In assay [7], the half-maximal inhibitory concentration (IC50) is over 100 µM.

Turning to `CCNC(=O)Nc1nccc2nc(-c3ccccc3)cnc12`, the IC50 was over 100 µM in assay [1]; over 100 µM in assay [2]; over 100 µM in assay [3]; over 100 µM in assay [4]; 30.8 µM in assay [5]; over 100 µM in assay [6]. Moreover, the IC50 in assay [7] is over 100 µM.

Take `c1ccc(-c2cnc3cnc(Nc4ccc(N5CCOCC5)cc4)cc3n2)cc1`: the IC50 in assay [1], in assay [2], in assay [3], in assay [4], in assay [5] and in assay [6] was over 100 µM throughout. Further, the IC50 in assay [7] was over 100 µM.

On to `COc1ccc(-c2cnc3c(Nc4ccc(N5CCOCC5)cc4)nccc3n2)cc1`, for which the half-inhibitory concentration (IC50) in assay [1] is over 100 µM; in assay [2], over 100 µM; in assay [3] it was 6.69 µM; in assay [4] it was 12 µM; in assay [5], 5.37 µM; in assay [6], 7.07 µM. Moreover, in assay [7], the IC50 is over 100 µM.

With `COc1cccc(Nc2nccc3nc(-c4ccccc4)cnc23)c1`, the IC50 in assay [1], in assay [2], in assay [3], in assay [4], in assay [5] and in assay [6] was over 100 µM throughout. In addition, in assay [7], the IC50 is over 100 µM.

With `c1ccc(-c2cnc3c(Nc4ccc(N5CCCCC5)cc4)cncc3n2)cc1`, the IC50 is 2.81 µM in assay [1]; 2.34 µM in assay [2]; 3.42 µM in assay [3]; 2.06 µM in assay [4]; 2.54 µM in assay [5]; 6.21 µM in assay [6]. Also, in assay [7], the IC50 turned out to be 2.73 µM.

Consider `COc1ccc(-c2cnc3cncc(Nc4cc(OC)ccc4OC)c3n2)cc1`, for which the IC50 amounted to 8.57 µM in assay [1]; 3.79 µM in assay [2]; 1.45 µM in assay [3]; 1.6 µM in assay [4]; 1.37 µM in assay [5]; 2.01 µM in assay [6]. Besides, the IC50 in assay [7] was determined as 13.1 µM.

On to `c1ccc(-c2cnc3cc(Nc4ccc(N5CCCCC5)cc4)ncc3n2)cc1`, for which the IC50 in assay [1] is over 100 µM; in assay [2], over 100 µM; in assay [3], over 100 µM; in assay [4], over 100 µM; in assay [5], 12.9 µM; in assay [6] it was 27.2 µM. In addition, in assay [7], the IC50 was over 100 µM.

For `c1ccc(Nc2cncc3ncc(-c4ccc(N5CCCCC5)cc4)nc23)cc1`, the IC50 turned out to be 31.2 µM in assay [1]; 12.2 µM in assay [2]; 7.79 µM in assay [3]; 11.1 µM in assay [4]; 6.84 µM in assay [5]; 8.82 µM in assay [6]. Also, the IC50 in assay [7] worked out at 11.8 µM.

As for `COc1ccc(-c2cnc3c(Nc4ccc(N5CCCCC5)cc4)nccc3n2)cc1`, the IC50 in assay [1] amounted to 11.8 µM; in assay [2], 1.44 µM; in assay [3], 1.44 µM; in assay [4], 1.99 µM; in assay [5], 1.34 µM; in assay [6], 1.02 µM. Besides, the IC50 in assay [7] was found to be 7.25 µM.

Consider `Fc1ccc(Nc2cncc3nc(-c4ccccc4)cnc23)cc1Cl`, for which the IC50 in assay [1] is over 100 µM; in assay [2], over 100 µM; in assay [3], over 100 µM; in assay [4] it was over 100 µM; in assay [5], over 100 µM; in assay [6] it was over 31.6 µM. Further, in assay [7], the IC50 is over 100 µM.
